Experimental data reported in ChEMBL document CHEMBL3046256, “Sesquiterpene lactones: antispasmodic principles of the freshwater algae Hydrodictyon reticulatum” (Med Chem Res, 2012).

Key:
Jejunum = test: Antispasmodic activity in Oryctolagus cuniculus (rabbit) jejunum assessed as K+-induced contraction at 1 mg/ml; type: functional
Ileum = test: Ratio IC50 for papaverine to IC50 for compound for antispasmodic activity in rat ileum; type: functional

Compound | inhibition at 1000 µg/mL (Jejunum) [%] | Ratio IC50 (Ileum)
CO[C@]1(C)C[C@H](O)[C@@H]2[C@H](OC(=O)[C@H]2C)[C@@H]2[C@H]1CC[C@@]2(C)O | 39.5 | 0.083
CO[C@]1(C)C[C@H](O)[C@@H]2[C@H](OC(=O)[C@H]2C)[C@@H]2[C@H]1C[C@@H](O)[C@@]2(C)O | 43.4 | 0.09
COc1ccc(Cc2nccc3cc(OC)c(OC)cc23)cc1OC [PAPAVERINE] |  | 1
C=C1CC[C@H]2O[C@]2(C)CC[C@@H]2[C@@H]1CC2(C)C [(-)-CARYOPHYLLENE OXIDE] | 31.6 | 0.071
COc1ccc(CCN(C)CCCC(C#N)(c2ccc(OC)c(OC)c2)C(C)C)cc1OC (stereo not drawn) [VERAPAMIL] | 67.5 | 
